Source: patent US7034039B2, “Fused heterocyclic compounds” (Takeda Pharmaceutical Company Limited, priority 2001, dated 2006)
Where a name gives a salt, the structure may show the parent alone.

Legend:
[1] = molecular target: T1, Caco-2-derived dipeptidyl peptidase IV (Homo sapiens, UniProt P27487); test: Determination of Caco-2-derived dipeptidyl peptidase IV inhibitory activity; assay type: biochemical; details: Caco-2 crude enzyme solution, substrate Gly-Pro-p-NA, 37° C., absorbance 405 nm after 0 h and 3 h
T1 construct: A dipeptidyl peptidase IV crude enzyme solution was prepared from culture cell of Caco-2 (ATCC HTB-37); endogenous in cells; host or cells: Caco-2 (ATCC HTB-37)
T1 sequence (P27487 whole entry): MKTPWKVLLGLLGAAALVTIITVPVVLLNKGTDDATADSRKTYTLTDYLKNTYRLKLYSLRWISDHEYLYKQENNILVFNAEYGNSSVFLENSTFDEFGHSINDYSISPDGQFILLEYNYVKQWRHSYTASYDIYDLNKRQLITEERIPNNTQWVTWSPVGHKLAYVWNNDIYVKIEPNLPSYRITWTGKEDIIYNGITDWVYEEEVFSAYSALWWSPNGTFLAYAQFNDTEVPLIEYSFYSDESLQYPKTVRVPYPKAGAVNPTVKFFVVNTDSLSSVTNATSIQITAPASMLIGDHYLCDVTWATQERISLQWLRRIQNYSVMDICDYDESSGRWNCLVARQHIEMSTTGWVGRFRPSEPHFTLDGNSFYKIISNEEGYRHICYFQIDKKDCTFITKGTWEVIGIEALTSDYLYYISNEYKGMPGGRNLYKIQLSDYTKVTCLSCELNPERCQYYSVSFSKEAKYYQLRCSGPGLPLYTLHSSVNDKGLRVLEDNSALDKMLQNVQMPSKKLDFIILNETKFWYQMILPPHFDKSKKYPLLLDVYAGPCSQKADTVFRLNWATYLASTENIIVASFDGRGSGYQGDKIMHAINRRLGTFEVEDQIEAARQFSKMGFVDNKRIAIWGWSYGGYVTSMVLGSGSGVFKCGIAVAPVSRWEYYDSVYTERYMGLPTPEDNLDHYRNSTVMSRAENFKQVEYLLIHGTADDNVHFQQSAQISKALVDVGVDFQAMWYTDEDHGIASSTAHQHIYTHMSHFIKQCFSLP
Procedure: 1) Preparation of Dipeptidyl Peptidase IV Crude Enzyme Solution
A dipeptidyl peptidase IV crude enzyme solution was prepared from culture cell of Caco-2 (ATCC HTB-37). The Caco-2 cells were cultured in D-MEM medium (manufactured by Nissui Pharmaceutical Co., Ltd.) containing 10% FBS (fetal calf serum (manufactured by GIBCO)). The cell extract was prepared by soaking the cells collected by removing the medium in 20 mM phosphate buffer. (pH 7.5) containing 0.5% Triton X-100, extracting for 30 min in an ice bath and separating the supernatant obtained by centrifugation 1500 g for 30 min. The cell extract (22 ml) was applied to a column of Sephadex G-200 (600 ml, manufactured by Pharmacia Corporation) equilibrated with 20 mM Tris-hydrochloride buffer (pH 7.5) and eluted with the same buffer. The elution was fractionated by 10 ml, examined for enzyme activity and 190 ml–280 ml fractions (90 ml) were collected. […]
An N,N-dimethylformamide solution (5 μl) containing the test compound was added to a mixture of water (25 μl), 1M Tris-hydrochloride buffer (10 μl, pH 7.5) and 1 mM aqueous glycylprolyl-p-nitroanilide (Gly-Pro-p-NA; manufactured by Backem AG) solution (50 μl) to prepare a mixed solution. […] The absorbance after 0 h and 3 h was measured using a microplate reader (Multiskan Bichromatic; manufactured by Labsystems) at a wavelength of 405 nm and an increase (ΔODs) was determined. […]

[2] = tested on: Wistar fatty rats; test: Plasma glucose-lowering effect and insulinotropic effect in rat (oral glucose tolerance test); assay type: in vivo; details: female Wistar fatty rats, 3 mg/kg orally 60 min before glucose load (1 g/kg), blood at 30 min after glucose load
Procedure: Plasma Glucose-lowering Effect and Insulinotropic Effect in Rat
Female Wistar fatty rats (17-week-old, 6 per group) were fasted overnight and blood was drawn from the tail vein. The plasma glucose level before administration of the test compound was measured. Then the test compound (3 mg/kg body weight/5 mL) suspended in 0.5% methyl cellulose was orally administered to the rats using a gastric tube. Oral glucose tolerance test (1 g/kg body weight/5 mL) was started 60 min later. Blood was drawn at 30 min after starting glucose load, and plasma glucose level and insulin level of the serum were measured.

[3] = molecular target: T2, dipeptidyl peptidase IV in rat plasma (Rattus norvegicus, UniProt P14740); test: Determination of dipeptidyl peptidase IV inhibitory activity in rat plasma; assay type: biochemical; details: SD rat plasma, substrate Gly-Pro-p-NA, 30° C., absorbance 405 nm after 0 h and 1 h
T2 construct: Plasma (20 μl) prepared from blood of SD rat by a conventional method; from tissue; host or cells: plasma of SD rat
T2 sequence (P14740 38-767 limits assumed): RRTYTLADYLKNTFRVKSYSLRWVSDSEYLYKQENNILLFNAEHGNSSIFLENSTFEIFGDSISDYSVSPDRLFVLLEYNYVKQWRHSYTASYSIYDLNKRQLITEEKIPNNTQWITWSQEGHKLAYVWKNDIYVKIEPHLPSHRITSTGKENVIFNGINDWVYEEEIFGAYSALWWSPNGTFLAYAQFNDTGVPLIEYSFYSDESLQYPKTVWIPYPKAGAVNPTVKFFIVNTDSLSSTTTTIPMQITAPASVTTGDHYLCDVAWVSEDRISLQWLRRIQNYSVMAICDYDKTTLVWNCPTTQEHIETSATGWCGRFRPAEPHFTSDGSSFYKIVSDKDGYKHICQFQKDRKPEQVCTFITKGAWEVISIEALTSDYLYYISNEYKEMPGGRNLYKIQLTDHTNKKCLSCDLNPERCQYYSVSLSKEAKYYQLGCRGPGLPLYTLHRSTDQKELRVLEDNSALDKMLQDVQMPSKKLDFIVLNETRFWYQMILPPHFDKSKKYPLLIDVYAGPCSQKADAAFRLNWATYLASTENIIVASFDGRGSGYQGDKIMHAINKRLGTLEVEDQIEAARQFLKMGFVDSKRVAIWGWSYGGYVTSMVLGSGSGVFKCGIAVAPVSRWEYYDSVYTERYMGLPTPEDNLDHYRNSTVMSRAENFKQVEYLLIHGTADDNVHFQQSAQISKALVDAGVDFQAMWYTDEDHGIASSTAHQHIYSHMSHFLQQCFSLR
Procedure: Determination of Dipeptidyl Peptidase IV Inhibitory Activity in Rat Plasma
An N,N-dimethylformamide solution (1 μl) containing the test compound was added to a mixture of water (69 μl), 1M Tris-hydrochloride buffer (10 μl, pH 7.5) and 1 mM aqueous Gly-Pro-p-NA solution (100 μl) to prepare a mixed solution. Plasma (20 μl) prepared from blood of SD rat by a conventional method was added the above-mentioned, mixed solution and the enzyme reaction was started at 30° C. The absorbance after 0 h and 1 h was measured using a microplate reader at a wavelength of 405 nm and an increase (ΔODs) was determined. At the same time, an increase (ΔODc) in absorbance of the reaction mixture without the test compound, and an increase (ΔODb) in absorbance of the reaction mixture without the test compound and the enzyme were determined and percent inhibition of dipeptidyl peptidase IV enzyme activity was calculated from the following formula: {1-[(ΔODs−ΔODb)/(ΔODc−ΔODb)]}×100

| melting point | Compound | other results |
| --- | --- | --- |
| 223 to 225 °C | CC(C)Cn1c(CN)c(-c2ccccc2)c2cc(/C=C/C(N)=O)ccc2c1=O.Cl (hydrate or solvate) | – |
| – | CCCCOc1c(CN)n(CC(C)(C)C)c(=O)c2ccc(OCC(N)=O)cc12 [Example 95, 2-{{3-(Aminomethyl)-4-butoxy-2-neopentyl-1-oxo-1,2-dihydro-6-isoquinolinyl}oxy}acetamide hydrochloride] | IC50 [1]: 280 nM; Plasma glucose level [2]: 82 % of control; insulin level [2]: 188 % of control; IC50 [3]: 180 nM |
| 247 to 249 °C | CC(C)Cn1c(CN)c(-c2ccc(Cl)cc2)c2cc(O)ccc2c1=O.Cl | – |
| 147 to 148 °C | CC(C)Cn1c(CN)c(OCCCC(F)(F)F)c2cc(OCC(N)=O)ccc2c1=O.Cl (hydrate or solvate) | – |
| 209 °C (dec.) | CC(C)Cn1c(CN)c(-c2ccccc2)c2cc(S(C)(=O)=O)ccc2c1=O.Cl | – |
| 126 to 127 °C | CCn1c(CN)c(-c2ccccc2)c2cc(Cl)ccc2c1=O [Example 113, 3-(Aminomethyl)-6-chloro-2-ethyl-4-phenyl-1(2H)-isoquinolinone] | – |
| 223 to 225 °C | CCCCOc1c(CN)n(CC(C)C)c(=O)c2ccc(/C=C/C(N)=O)cc12.Cl | – |
| 178 to 180 °C (dec.) | Cc1ccc(-c2c(CN)n(CC(C)C)c(=O)c3ccccc23)cc1.Cl | – |
| 163 to 165 °C | CCCCOc1c(CN)n(CC(C)(C)C)c(=O)c2ccc(CC(N)=O)cc12.Cl | – |
| 124 to 126 °C | CCCCOc1c(CN)n(CC2CC2)c(=O)c2ccc(-c3cnco3)cc12.Cl | – |
| 142 to 144 °C | CC(C)Cn1c(CN)c(-c2ccccc2)c2cc(CC#N)ccc2c1=O.Cl | – |
| 232 to 237 °C | CC(C)Cn1c(CN)c(-c2ccccc2)c2cc(-c3nsc(=O)[nH]3)ccc2c1=O.Cl | – |
| 253 °C (dec.) | CC(C)Cn1c(CN)c(-c2ccccc2)c2cc(-c3noc(=O)[nH]3)ccc2c1=O.Cl | – |
| 255 to 256 °C | CC(C)Cn1c(CN)c(-c2ccc(F)cc2)c2cc(/C=C/C(=O)O)ccc2c1=O.Cl | – |
| 218 to 220 °C | CC(C)Cn1c(CN)c(-c2ccccc2)c2cc(-c3nn[nH]n3)ccc2c1=O.Cl | – |
| 209 to 210 °C | CC(C)Cn1c(CN)c(-c2cccc(F)c2)c2cc(OCC(N)=O)ccc2c1=O.Cl | – |
| 200 to 202 °C | CCCCOc1c(CN)n(CC(C)C)c(=O)c2ccc(C(N)=S)cc12.Cl | – |
| 123 to 124 °C | CC(C)Cn1c(CN)c(-c2ccccc2)c2cc(Cl)ccc2c1=O [Example 118, 3-(Aminomethyl)-6-chloro-2-isobutyl-4-phenyl-1(2H)-isoquinolinone] | – |
| 167 °C (dec.) | CC(C)Cn1c(CN)c(-c2ccccc2)c2cc([S+](C)[O-])ccc2c1=O (centres unmarked) [Example 172, 3-(Aminomethyl)-2-isobutyl-6-(methylsulfinyl)-4-phenyl-1(2H)-isoquinolinone] | – |
| 189 to 190 °C | CC(C)Cn1c(CN)c(-c2ccc(F)cc2)c2cc(OCC(N)=O)ccc2c1=O.Cl | – |
| 173 to 174 °C | CC(C)(C)Cn1c(CN)c(-c2ccccc2)c2cc(Cl)ccc2c1=O [Example 122, 3-(Aminomethyl)-6-chloro-2-neopentyl-4-phenyl-1(2H)-isoquinolinone] | – |

| melting point | Compound | other results |
| --- | --- | --- |
| 211 to 213 °C | CCCCOc1c(CN)n(CC(C)C)c(=O)c2ccc(-c3cnco3)cc12.Cl | – |
| 248 to 250 °C | CCCCOc1c(CN)n(CC(C)C)c(=O)c2ccc(OCC(N)=O)cc12.Cl (hydrate or solvate) | – |
| – | CC(C)Cn1c(CN)c(-c2ccccc2)c2cc(C(N)=O)ccc2c1=O [Example 109, 3-Aminomethyl-2-isobutyl-4-phenyl-1(2H)-isoquinolinone-6-carboxamide hydrochloride [3-(aminomethyl)-2-isobutyl-1-oxo-4-phenyl-1,2-dihydro-6-isoquinolinecarboxamide hydrochloride]] | Plasma glucose level [2]: 73 % of control; insulin level [2]: 205 % of control |
| 187 to 188 °C | CCCCOc1c(CN)n(CC(C)(C)C)c(=O)c2ccc(/C=C/C(N)=O)cc12.Cl (hydrate or solvate) | – |
| 255 to 256 °C | Cc1ccc(-c2c(CN)n(CC(C)C)c(=O)c3ccc(O)cc23)cc1.Cl | – |
| 129 to 130 °C | CC(C)Cn1c(CN)c(-c2ccccc2)c2cc(Br)ccc2c1=O [Example 106, 3-Aminomethyl-6-bromo-2-isobutyl-4-phenyl-1(2H)-isoquinolinone] | – |
| 119 to 120 °C | CC(C)Cn1c(CN)c(-c2ccc(Cl)cc2)c2ccccc2c1=O [Example 124, 3-(Aminomethyl)-4-(4-chlorophenyl)-2-isobutyl-1(2H)-isoquinolinone] | – |
| 181 to 183 °C | CCCCOc1c(CN)n(CC(C)C)c(=O)c2ccc(NC(=O)C(C)C)cc12.Cl | – |
| 164 to 165 °C | CCCCOc1c(CN)n(CC2CC2)c(=O)c2ccc(C(N)=O)cc12.Cl (hydrate or solvate) | – |
| 228 to 230 °C | CC(C)Cn1c(CN)c(-c2ccccc2)c2cc(/C=C/C(N)=O)ccc2c1=O [Example 160, (E)-3-[3-(Aminomethyl)-2-isobutyl-1-oxo-4-phenyl-1,2-dihydro-6-isoquinolinyl]-2-propenamide] | – |
| 179 °C (dec.) | CC(=O)c1ccc2c(=O)n(CC(C)C)c(CN)c(-c3ccccc3)c2c1.Cl | – |
| 129 to 130 °C | CC(C)Cn1c(CN)c(-c2ccccc2)c2ccccc2c1=O [Example 123, 3-(Aminomethyl)-2-isobutyl-4-phenyl-1(2H)-isoquinolinone] | – |
| 218 to 220 °C | CC(C)Cn1c(CN)c(-c2ccccc2)c2cc(SCC(N)=O)ccc2c1=O [Example 171, 2-{[3-(Aminomethyl)-2-isobutyl-1-oxo-4-phenyl-1,2-dihydro-6-isoquinolinyl]sulfanyl}acetamide] | – |
| 278 to 280 °C | Cc1ccc(-c2c(CN)n(CC(C)C)c(=O)c3ccc(OCC(N)=O)cc23)cc1.Cl (hydrate or solvate) | – |
| 188 to 190 °C | CCCCOc1c(CN)n(CC2CC2)c(=O)c2ccc(/C=C/C(N)=O)cc12.Cl | – |
| – | CC(=O)Nc1ccc2c(=O)n(CC(C)C)c(CN)c(-c3ccccc3)c2c1.Cl [Example 112, 6-Acetylamino-3-aminomethyl-2-isobutyl-4-phenyl-1(2H)-isoquinolinone hydrochloride] | IC50 [1]: 250 nM; Plasma glucose level [2]: 76 % of control; insulin level [2]: 255 % of control; IC50 [3]: 320 nM |
| 252 to 255 °C | CSc1ccc2c(=O)n(CC(C)C)c(CN)c(-c3ccccc3)c2c1.Cl | – |
| 135 to 136 °C | CCCCOc1c(CN)n(CC(C)C)c(=O)c2ccc(C#N)cc12.Cl | – |
| 133 to 134 °C | CCCCOc1c(CN)n(CC2CC2)c(=O)c2ccc(OCC(N)=O)cc12.Cl (hydrate or solvate) | – |
| 179 to 181 °C | CC1=NN(c2ccc3c(=O)n(CC(C)C)c(CN)c(-c4ccccc4)c3c2)CO1 [Example 166, 3-(Aminomethyl)-2-isobutyl-6-(5-methyl-1,3,4-oxadiazol-3-yl)-4-phenyl-1(2H)-isoquinolinone] | – |
| 162 to 163 °C | Cc1csc(-c2ccc3c(=O)n(CC(C)C)c(CN)c(-c4ccccc4)c3c2)n1 (hydrate or solvate) [Example 194, 3-(Aminomethyl)-2-isobutyl-6-(4-methyl-1,3-thiazol-2-yl)-4-phenyl-1(2H)-isoquinolinone] | – |

| Compound | melting point | other results |
| --- | --- | --- |
| CCCCOc1c(CN)n(CC(C)(C)C)c(=O)c2ccc(OCC(N)=O)cc12 (as salt: hydrochloride) [Example 95, 2-{{3-(Aminomethyl)-4-butoxy-2-neopentyl-1-oxo-1,2-dihydro-6-isoquinolinyl}oxy}acetamide hydrochloride] | 233 to 235 °C | – |
